US11154057B2, “Use of nootkatone to treat mosquito infestations” (EVOLVA SA, priority 2016, dated 2021)

Tests used:
Type in all cases: in vivo
[1] = tested on: Aedes aegypti pupae; test: Efficacy against mosquito pupae (Example No. 6); details: for pupae died within 24 hours: 0.03% nootkatone/1% ethanol
Procedure: Eggs of Aedes aegypti were purchased from a commercial supplier. Eggs were hatched in sterile MilliQ water and fed with finely ground Tetramin® fish food until they developed into pupae.
Clean, glass 600 mL beakers were washed and thoroughly rinsed prior to use as test containers. On testing days, pupae were removed from dishes used to grow larvae. Replicates of 10 pupae each were randomly assigned to glass beakers in a volume of 100 mL of sterile MilliQ water, and a treatment of nootkatone (see “Treatments” below), or a control treatment of ethanol alone, was added. Three control replicates and 4 treated replicates were tested on one day, and on a second day, two control replicates and four treated replicates were tested. The beakers were then covered lightly with Kimwipes, secured by rubber bands to prevent escape of adults. The beakers were observed after 24 hours, and the numbers of live pupae, dead pupae, live adults, and dead adults were recorded.
An aliquot of 1 mL of a 3% solution (w/v) of nootkatone in 100% ethanol was added to treatment beakers to obtain a final concentration of 0.03% nootkatone/1% ethanol. Control beakers received 1 mL of 100% ethanol, to obtain a final concentration of 1% ethanol.

[2] = tested on: Aedes aegypti larvae; test: Larval bioassay comparing nootkatone with soy oil and mineral oil (Example No. 2); details: FIG. 3
Excerpt: This example describes a laboratory bioassay in which groups of mosquito larvae were exposed to compositions that contain oils, but not nootkatone, to determine whether larval mortality was due to suffocation by oils in general, or due to a specific property of nootkatone.
One milliliter of a solution of oil in ethanol was applied directly to 100 milliliters of water containing larvae, using a micropipette. One treatment condition used 3% (v/v) soybean oil in ethanol, and a second treatment condition used 3% (v/v) mineral oil in ethanol, for final concentrations of 0.03% (v/v), respectively. One milliliter of pure ethanol was used as a control, and 0.03% (v/v) nootkatone in ethanol was included as a comparison of efficacy. Two replicates of 25 larvae were tested per treatment in clean, glass 600 mL beakers.
(§1) Readings were discontinued if treated mortality reached 100%, or control mortality exceeded 20%.

[3] = tested on: Aedes aegypti larvae
Excerpt: This example describes a laboratory bioassay in which groups of mosquito larvae were exposed to a nootkatone-containing composition to determine larval susceptibility to nootkatone.
One milliliter of a solution of nootkatone in ethanol was applied directly to 100 milliliters of water containing larvae, using a micropipette. One treatment condition used 3% (v/v) nootkatone in ethanol, and a second treatment condition used 1% (v/v) nootkatone in ethanol, for final concentrations of 0.03% or 0.01% (v/v), respectively. One milliliter of pure ethanol was used as a control. Four replicates of 25 larvae were tested per treatment. Clean, glass 600 mL laboratory beakers were used as test containers such that the surface area of the water to be treated was 54 cm^2.
Larvae were observed after 24 hours post-introduction to the test containers.
as §1

C=C(C)[C@@H]1CCC2=CC(=O)C[C@@H](C)[C@]2(C)C1 [Nootkatone, nootkatone]
pupae died within 24 hours, average ([1]; 0.03% nootkatone/1% ethanol in water, average of two test days, controls 3%, FIG. 12): 94%
pupae died within 24 hours ([1]; one experiment): 93%
pupae died within 24 hours ([1]; second day of testing): 95%
larvae killed ([2]; 0.03% (v/v) final in water with ethanol, in 24 hours, two replicates of 25 larvae): 100%
effectiveness of killing larvae versus soy oil and mineral oil ([2]; 0.03% (v/v), after 24 hr treatment): more effective than either soy oil or mineral oil
larvae killed, on average ([3]; 0.01% (v/v) nootkatone final, 24 hours of exposure, four replicates): 80%
mortality ([3]; 0.01% (v/v) nootkatone final, after 48 hours): 100%
Dead (mortality), mean ([3]; 0.03% (v/v) nootkatone final (1 mL of 3% in ethanol to 100 mL water), 54 cm^2, 24 hours post introduction): 100%
Affected, mean ([3]; 0.03% (v/v) nootkatone final, 1% ethanol, 100 mL water, 54 cm^2, 24 hours post introduction): 100.0%
Morbidity (M), mean ([3]; 0.03% (v/v) nootkatone final, 1% ethanol, 100 mL water, 54 cm^2, 24 hours post introduction, four replicates of 25 larvae): 0%
